Data reported in paper PMC6072501, “N-tert-Prenylation of the indole ring improves the cytotoxicity of a short antagonist G analogue against small cell lung cancer” (MedChemComm, 2017).
“Also recorded” adds a separate entry of the source. *1 amine or outer side, *2 acyl side, *3 side chain or, on linkers, in order; H or OH if unused. Where a SMILES comes first, the peptide text is derived from it. Where no end group is shown, it is not given here. [ ]: non-standard residue; d: D form. X1 = C=CC(C)(C)n1cc(C[C@@H](N[*:1])C(=O)[*:2])c2ccccc21; NMeF = CN[C@@H](Cc1ccccc1)C(=O)O; dNMeF = CN[C@H](Cc1ccccc1)C(=O)O

Columns and labels:
NCI-H69 cells = conditions: at 50 μM, serum-free media; cited from earlier work
Description: (§1) Several other related short chain SP antagonists have been investigated in the literature. […] Recently, Sarvi et al.[19] designed and synthesised a panel of eight substance P-peptide analogues ranging from a pentamer to 11-mer sequences. They compared their IC50 values, relative to SPG, using H345 and H69 cell lines. All an ...

[1] = Peptide stability in mouse plasma (HPLC); type: in vitro ADME; conditions: neat mouse plasma, 37 °C; for stability in mouse plasma over 3 hour incubation: 400 µg/ml, 0 and 3 h, RP-HPLC C8, 220 nm, triplicate
Procedure: (§2) Plasma drug interaction affects the ability of the drug to distribute into tissues. To determine the extent of plasma binding to peptide 2, equilibrium dialysis (Cyprotex Ltd) was carried out. A 5 μM solution of peptide in PBS at pH 7.5 in 0.5% DMSO was mixed with neat human plasma in a total volume of 0.15 ml. After equilibrium at 37 °C, aliquots were taken from both sides of the membrane to determine the fraction of bound peptide. […] While in circulation, the peptide needs to be stable for a few hours to accumulate in tumours. It is commonly accepted that unmodified peptides are highly prone to protease digestion in plasma, leading to rapid degradation within a few minutes. Peptides 1 and 2 were subjected to stability testing in mouse plasma. The peptides dissolved in neat plasma (0.2 ml) were incubated at 37 °C. Aliquots (20 μl) were taken at 0 and 3 hour intervals in triplicate for analysis by HPLC. […] A plasma stability of 3 hours is considered as a sufficient time window to accumulate in tumour for efficacy studies.
4. Peptides stability in mouse plasma
Eppendorf® tubes were used for sample preparations. HPLC microvials were bought from Sigma-Aldrich®. HPLC analysis was performed using a C8 column (ACE 5 C8 – 250 X 4.6mm id) on a PerkinElmer Series 200 machine.
4.2. Peptides plasma stability
Peptides were added to neat mouse plasma at a concentration of 400 µg/ml and placed inside an incubator at 37 °C for 3 hours. Aliquots (20 µl) were taken at 0 and 3 hour periods. […] Then 80 µl of the supernatant was added to 0.1% TFA/H2O (120 µl) and transferred into a HPLC microvial to be analysed using the C8 column. […]
DMS79 cells were injected subcutaneously into ten CBA nude female mice (bred in house) at 5x10^6 cells/mouse in 0.1 ml of serum free RPMI-1640 medium containing 50% matrigel (Scientific Laboratory Supplies, Surrey, UK) as described in our recent publication (Reference 38). Tumours were measured and mice weighed 3 times a week throughout the study. Tumour volumes were calculated by multiplying the length, width and depth of tumors. […]

[2] = system: H69 small cell lung cancer cell line; experiment: Cell viability assay (resazurin) on H69 cells; type: cell-based, human; conditions: 48 h
Description: Swiss Albino cell line 3T3 and two SCLC cell lines, DMS79 and H69, were selected for screening. 3T3 cells are fibroblast non-cancerous cells and were used to show the selectivity of the peptides for cancer treatment. The DMS79 cell line is a variant cell line model which is more resistant to chemotherapy as it originates from a patient with SCLC who had undergone treatment with cytoxan, vincristine, methotrexate and radiation therapy. On the other hand, H69 represents a chemo-naive SCLC cell line model. Cell viability was assessed by quantifying the reduction of resazurin dye to fluorescent resorufin.[28]–[31] H69 and DMS79 cells were seeded in 96-well plates at a density of 10 000 cells per well and maintained in 10% FBS/RPMI-1640 for 48 hours at 37 °C in a humidified air atmosphere of 5% CO2 in the presence of various peptide concentrations. 3T3 cells were maintained under the same conditions but using 10% FBS/DMEM and a seeding density of 2500 cells per well. The dye was then applied for 5 hours before measuring fluorescence. […] The peptide thus had the potential to be tested in vivo subject to its biocompatibility with plasma.
Growth media, RPMI-1640 (with L-glutamine and NaHCO3) and DMEM, Dulbecco’s PBS (without calcium chloride and magnesium chloride), and Resazurin sodium salt were obtained from Sigma-Aldrich®. Human lung small cell carcinoma (H69 (ECACC 91091802)) and Mouse Swiss Albino embryo fibroblast (3T3 Swiss Albino (ECACC 85022108)) were from European Collection of Authenticated Cell Cultures (ECACC, Public Health England). […]
(§3) Complete medium containing resazurin was used as background. […] Then resazurin (20 µl) was added to each well and kept at 37 °C in a humidified air atmosphere of 5% CO2 for 5 hours before fluorescence readings were recorded. […]
(§4) Assessment of apoptosis was carried out through a fluorescent technique by using Acridine Orange (AO) and Ethidium Bromide (EB) double staining. […] AO emits green fluorescence while EB emits red/orange fluorescence when […]

[3] = system: DMS79 small cell lung cancer cell line; experiment: Cell viability assay (resazurin) on DMS79 cells; type: cell-based, human; conditions: 48 h
Description: (§5) Swiss Albino cell line 3T3 and two SCLC cell lines, DMS79 and H69, were selected for screening. 3T3 cells are fibroblast non-cancerous cells and were used to show the selectivity of the peptides for cancer treatment. The DMS79 cell line is a variant cell line model which is more resistant to chemotherapy as it originates from a patient with SCLC who had undergone treatment with cytoxan, vincristine, methotrexate and radiation therapy. On the other hand, H69 represents a chemo-naive SCLC cell line model. Cell viability was assessed by quantifying the reduction of resazurin dye to fluorescent resorufin.[28]–[31] H69 and DMS79 cells were seeded in 96-well plates at a density of 10 000 cells per well and maintained in 10% FBS/RPMI-1640 for 48 hours at 37 °C in a humidified air atmosphere of 5% CO2 in the presence of various peptide concentrations. […] The dye was then applied for 5 hours before measuring fluorescence. […]
as §3, §4

[4] = system: 3T3 Swiss Albino fibroblasts; type: cell-based, mouse; conditions: 48 h
Description: as §5, §3, §4

[5] = phase I clinical trial, cited from earlier work
Description: Recognising the anti-proliferative action together with other preclinical evidence supporting broad-spectrum neuropeptide antagonism prompted a phase I clinical trial with SPG,[11] the results of which were encouraging. […] This, combined with low potency of the peptide, necessitated prolonged dosing by infusion to maintain therapeutic concentrati ...

[6] = Plasma binding by equilibrium dialysis (Cyprotex Ltd); type: in vitro ADME; conditions: neat human plasma
Procedure: as §2

[7] = Aqueous solubility (observation on dosing solutions); type: physicochemical; conditions: observation while preparing dosing solutions; higher concentration gave significant precipitation
H69 = conditions: treatment for 72 hours; cited from earlier work
Description: Swiss Albino cell line 3T3 and two SCLC cell lines, DMS79 and H69, were selected for screening. 3T3 cells are fibroblast non-cancerous cells and were used to show the selectivity of the peptides for cancer treatment. The DMS79 cell line is a variant cell line model which is more resistant to chemotherapy as it originates from a patient with SCLC who had undergone treatment with cytoxan, vincristine, methotrexate and radiation therapy. On the other hand, H69 represents a chemo-naive SCLC cell line model. Cell viability was assessed by quantifying the reduction of resazurin dye to fluorescent re ...

H345 and H69 cell lines = conditions: cited from earlier work
Description: as §1

H345 xenografts = conditions: subcutaneous injections, 25 mg kg^–1; cited from earlier work
Procedure: The relative tumour volume (RTV) as a percentage was calculated by dividing the tumour volumes on measured days by the tumour volume on day 0, before treatment. […] Excluding this single animal from the treated group, the tumour growth inhibition (TGI, Fig. 5) was calculated at day 7 as TGI (%) = (1 – T/C) × 100, where T indicates the mean tumour volume (mm^3) of the test group and C indicates the mean tumour volume of the vehicle-treated group. At day 7, the tumour volumes of pre ...

[8] = up to the concentration of 30 μM, resazurin

**Q.** Which “inhibition of growth of NCI-H69 cells” value (NCI-H69 cells) does the source give for “D-MePhe–D-Trp–Phe–D-Trp–Leu-MPA [NY3521]” here?
**A.** Its value is “completely inhibited”.

**Q.** For `CN[C@H](Cc1ccccc1)C(=O)N[C@H](Cc1c[nH]c2ccccc12)C(=O)N[C@@H](Cc1ccccc1)C(=O)N[C@H](Cc1c[nH]c2ccccc12)C(=O)N[C@@H](CC(C)C)C(N)=O` [peptide 1] (H-[dNMeF][dW]F[dW]L-NH2), which “stability in mouse plasma over 3 hour incubation” value [1] is on record?
**A.** The value was “remained largely intact”.

**Q.** Which IC50 [2] does the source give for `CSCC[C@H](NC(=O)[C@H](CC(C)C)NC(=O)[C@@H](Cc1c[nH]c2ccccc12)NC(=O)[C@H](Cc1ccccc1)N(C)C(=O)[C@@H](Cc1c[nH]c2ccccc12)NC(=O)[C@@H](N)CCCNC(=N)N)C(N)=O` [SPG, Arg–D-Trp–NMePhe–D-Trp–Leu–Met-NH2] (H-R[dW][NMeF][dW]LM-NH2) here?
**A.** The IC50 was over 30 µM.

**Q.** What about the “inhibitory effect (cytotoxicity profile), H69” value [2, 8] of the same compound?
**A.** The value was “no inhibitory effect”.

**Q.** What about the IC50 [3] of the same compound?
**A.** Its IC50 is over 30 µM.

**Q.** And the “inhibitory effect (cytotoxicity profile), DMS79” value [3, 8]?
**A.** The value was “no inhibitory effect”.

**Q.** What about the IC50 [4] of the same compound?
**A.** The IC50 was over 30 µM.

**Q.** What about the elimination from plasma ([5]; resulting in poor systemic bioavailability) of the same compound?
**A.** The elimination from plasma was “quickly eliminated from plasma”.

**Q.** And the toxicity [5]?
**A.** Its toxicity is “minimal toxicity”.

**Q.** What does the source list for `C=CC(C)(C)n1cc(C[C@@H](NC(=O)[C@H](Cc2ccccc2)NC(=O)[C@@H](Cc2c[nH]c3ccccc23)NC(=O)[C@@H](Cc2ccccc2)NC)C(=O)N[C@@H](CC(C)C)C(N)=O)c2ccccc21` [peptide 2, NMeDPhe-DTrp-Phe-DTrp(N-tert-prenyl)-Leu-NH2] (H-[dNMeF][dW]F[X1]L-NH2)?
**A.** cytotoxicity enhancement of 2 over pentamer 1 (comparison of IC50 values) ([2]; depending on the cell line (DMS79 and H69)): 5 to 10 fold; fraction unbound at 5 µM ([6]; 5 μM peptide in PBS pH 7.5 with 0.5% DMSO, total volume 0.15 ml, 37 °C, mean): 0.728 ± 0.124; peptide unbound ([6]; 5 μM, PBS pH 7.5, 37 °C): 73%; stability in mouse plasma over 3 hour incubation [1]: remained largely intact; also recorded: a small percentage of degradation was noted; time of resisting degradation by plasma ([1]; HPLC): at least 3 hours; aqueous solubility [7]: limited aqueous solubility; also recorded: lower aqueous solubility than SPG

**Q.** For [dR]PKP[dW]Q[dW]F[dW][dL]L [11-mer], which IC50 (H69) is on record?
**A.** The IC50 was 4.96 ± 0.64 µM.

**Q.** And the “potency relative to SPG (IC50 values)” value (H345 and H69 cell lines)?
**A.** Its value is 3 to 4 fold.

**Q.** And the tumour growth (H345 xenografts)?
**A.** The tumour growth was “significant reduction in tumour growth”.

**Q.** With “D-MePhe–D-Trp–Phe–D-Trp–LeuΨ(CH2NH)Leu-NH2 [NY3460]” as the compound, how does the “inhibition of growth of NCI-H69 cells” value (NCI-H69 cells) read?
**A.** The value was “completely inhibited”.
